Assays:
Experiment in all cases: biochemical
Parameters in all cases: KINOMEscan scanMAX active site-directed competition binding assay, percent of control, 468 kinases
Conditions in all cases: competition binding, percent of control
[1] = molecular target: T1, ABL1(F317L)-phosphorylated (Homo sapiens, UniProt P00519, F317L)
T1 construct: phosphorylated
Method in brief: (§1)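 KINOMEscan active site-directed competition binding assay against 468 human kinases with 100 μM S-carvone. Binding expressed as % of control, with 35% of control as the inhibition threshold.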

[2] = molecular target: T2, ABL1(Y253F)-phosphorylated (Homo sapiens, UniProt P00519, Y253F)
T2 construct: phosphorylated
Method in brief: as §1

[3] = molecular target: CASK (Homo sapiens, UniProt O14936)
Method in brief: as §1

[4] = molecular target: CSNK2A2 (Homo sapiens, UniProt P19784)
Method in brief: as §1

[5] = molecular target: T3, DCAMKL3 (Homo sapiens, UniProt Q9C098)
T3 construct: gene DCLK3
Method in brief: as §1

[6] = molecular target: T4, ERK3 (Homo sapiens, UniProt Q16659)
T4 construct: gene MAPK6
Method in brief: as §1

[7] = molecular target: FGFR3 (Homo sapiens, UniProt P22607)
Method in brief: as §1

[8] = molecular target: T5, JNK1 (Homo sapiens, UniProt P45983)
T5 construct: gene MAPK8
Method in brief: as §1

[9] = molecular target: KIT (Homo sapiens, UniProt P10721)
Method in brief: as §1

[10] = molecular target: LATS1 (Homo sapiens, UniProt O95835)
Method in brief: as §1

[11] = molecular target: LIMK1 (Homo sapiens, UniProt P53667)
Method in brief: as §1

[12] = molecular target: MARK1 (Homo sapiens, UniProt Q9P0L2)
Method in brief: as §1

[13] = molecular target: T6, MLK2 (Homo sapiens, UniProt Q02779)
T6 construct: gene MAP3K10
Method in brief: as §1

[14] = molecular target: MYLK2 (Homo sapiens, UniProt Q9H1R3)
Method in brief: as §1

[15] = molecular target: PIK3CA(E542K) (Homo sapiens, UniProt P42336, E542K)
Method in brief: as §1

[16] = molecular target: RET (Homo sapiens, UniProt P07949)
Method in brief: as §1

[17] = molecular target: SBK1 (Homo sapiens, UniProt Q52WX2)
Method in brief: as §1

[18] = molecular target: SYK (Homo sapiens, UniProt P43405)
Method in brief: as §1

[19] = molecular target: TAOK3 (Homo sapiens, UniProt Q9H2K8)
Method in brief: as §1

[20] = molecular target: TGFBR2 (Homo sapiens, UniProt P37173)
Method in brief: as §1

[21] = molecular target: T7, TRKC (Homo sapiens, UniProt Q16288)
T7 construct: gene NTRK3
Method in brief: as §1

[22] = molecular target: VRK2 (Homo sapiens, UniProt Q86Y07)
Method in brief: as §1

T4 sequence (Q16659 whole entry): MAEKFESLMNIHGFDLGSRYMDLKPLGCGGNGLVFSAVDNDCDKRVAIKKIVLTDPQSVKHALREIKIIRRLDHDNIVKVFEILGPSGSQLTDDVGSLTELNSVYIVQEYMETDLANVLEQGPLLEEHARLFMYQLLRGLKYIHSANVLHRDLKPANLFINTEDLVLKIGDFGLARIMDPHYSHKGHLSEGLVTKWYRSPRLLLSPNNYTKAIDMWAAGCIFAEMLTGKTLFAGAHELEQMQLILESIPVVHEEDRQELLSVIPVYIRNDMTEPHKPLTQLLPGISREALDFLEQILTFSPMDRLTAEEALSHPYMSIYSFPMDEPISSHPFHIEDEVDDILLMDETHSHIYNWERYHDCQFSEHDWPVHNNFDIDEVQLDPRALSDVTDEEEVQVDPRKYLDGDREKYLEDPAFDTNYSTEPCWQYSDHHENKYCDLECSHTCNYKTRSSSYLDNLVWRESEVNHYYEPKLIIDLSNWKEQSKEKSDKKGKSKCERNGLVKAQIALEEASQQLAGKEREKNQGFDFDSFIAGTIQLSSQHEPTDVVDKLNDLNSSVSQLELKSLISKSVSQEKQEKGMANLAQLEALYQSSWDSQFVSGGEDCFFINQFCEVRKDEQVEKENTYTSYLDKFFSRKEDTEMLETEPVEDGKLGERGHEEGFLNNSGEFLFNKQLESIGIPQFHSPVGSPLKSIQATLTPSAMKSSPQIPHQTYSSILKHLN
T6 sequence (Q02779 whole entry): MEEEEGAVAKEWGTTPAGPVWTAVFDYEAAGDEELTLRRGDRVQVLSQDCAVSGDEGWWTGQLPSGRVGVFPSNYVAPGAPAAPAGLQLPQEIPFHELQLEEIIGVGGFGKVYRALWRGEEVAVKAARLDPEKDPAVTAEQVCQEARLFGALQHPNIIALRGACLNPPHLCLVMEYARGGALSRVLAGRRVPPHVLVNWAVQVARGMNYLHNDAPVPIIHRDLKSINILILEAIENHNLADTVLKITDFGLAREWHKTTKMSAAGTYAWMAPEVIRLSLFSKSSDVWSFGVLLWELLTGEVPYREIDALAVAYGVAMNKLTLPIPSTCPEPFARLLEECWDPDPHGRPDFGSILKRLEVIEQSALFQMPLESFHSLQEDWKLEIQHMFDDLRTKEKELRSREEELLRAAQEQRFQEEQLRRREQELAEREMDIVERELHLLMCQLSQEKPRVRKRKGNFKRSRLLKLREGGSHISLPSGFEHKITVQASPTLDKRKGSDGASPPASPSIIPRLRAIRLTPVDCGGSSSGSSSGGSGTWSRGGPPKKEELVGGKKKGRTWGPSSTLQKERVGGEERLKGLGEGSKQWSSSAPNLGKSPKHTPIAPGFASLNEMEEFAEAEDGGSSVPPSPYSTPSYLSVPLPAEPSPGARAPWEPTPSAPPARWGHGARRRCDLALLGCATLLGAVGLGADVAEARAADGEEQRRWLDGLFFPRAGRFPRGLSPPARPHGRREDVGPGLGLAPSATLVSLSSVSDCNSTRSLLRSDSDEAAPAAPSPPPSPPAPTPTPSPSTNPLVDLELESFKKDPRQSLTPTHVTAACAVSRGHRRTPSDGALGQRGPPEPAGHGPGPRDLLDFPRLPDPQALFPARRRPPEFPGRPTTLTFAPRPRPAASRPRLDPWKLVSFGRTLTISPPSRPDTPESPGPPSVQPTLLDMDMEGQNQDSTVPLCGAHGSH
Sequence of LATS1 (O95835 whole entry): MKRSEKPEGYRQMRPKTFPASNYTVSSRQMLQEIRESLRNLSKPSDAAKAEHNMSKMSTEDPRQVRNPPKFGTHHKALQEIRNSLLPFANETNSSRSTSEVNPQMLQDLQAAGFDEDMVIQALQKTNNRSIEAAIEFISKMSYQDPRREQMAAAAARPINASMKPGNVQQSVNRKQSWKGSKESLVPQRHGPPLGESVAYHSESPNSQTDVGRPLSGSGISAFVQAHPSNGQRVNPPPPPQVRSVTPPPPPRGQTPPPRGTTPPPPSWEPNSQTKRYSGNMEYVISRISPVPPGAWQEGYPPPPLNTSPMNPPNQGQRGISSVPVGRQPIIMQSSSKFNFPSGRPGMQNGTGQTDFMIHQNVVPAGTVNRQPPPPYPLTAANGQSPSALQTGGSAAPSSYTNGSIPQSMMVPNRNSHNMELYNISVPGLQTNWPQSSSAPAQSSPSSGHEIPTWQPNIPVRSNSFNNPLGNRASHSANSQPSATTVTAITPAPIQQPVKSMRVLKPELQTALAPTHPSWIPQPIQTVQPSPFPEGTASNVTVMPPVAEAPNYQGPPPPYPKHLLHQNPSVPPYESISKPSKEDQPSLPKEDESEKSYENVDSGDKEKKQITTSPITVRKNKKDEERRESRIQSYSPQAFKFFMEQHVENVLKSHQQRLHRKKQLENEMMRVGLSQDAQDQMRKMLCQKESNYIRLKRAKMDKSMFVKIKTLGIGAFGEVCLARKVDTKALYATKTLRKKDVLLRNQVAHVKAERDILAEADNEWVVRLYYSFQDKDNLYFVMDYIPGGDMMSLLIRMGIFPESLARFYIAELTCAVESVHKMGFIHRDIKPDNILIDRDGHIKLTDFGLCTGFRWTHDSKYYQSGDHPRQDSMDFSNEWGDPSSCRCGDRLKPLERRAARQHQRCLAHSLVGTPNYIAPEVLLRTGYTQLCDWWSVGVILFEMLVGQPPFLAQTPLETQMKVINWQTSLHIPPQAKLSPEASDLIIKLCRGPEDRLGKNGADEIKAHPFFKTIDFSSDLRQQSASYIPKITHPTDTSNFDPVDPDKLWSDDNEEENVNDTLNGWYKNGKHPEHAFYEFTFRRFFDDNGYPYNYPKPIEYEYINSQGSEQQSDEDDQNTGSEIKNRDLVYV
Sequence of RET (P07949 whole entry): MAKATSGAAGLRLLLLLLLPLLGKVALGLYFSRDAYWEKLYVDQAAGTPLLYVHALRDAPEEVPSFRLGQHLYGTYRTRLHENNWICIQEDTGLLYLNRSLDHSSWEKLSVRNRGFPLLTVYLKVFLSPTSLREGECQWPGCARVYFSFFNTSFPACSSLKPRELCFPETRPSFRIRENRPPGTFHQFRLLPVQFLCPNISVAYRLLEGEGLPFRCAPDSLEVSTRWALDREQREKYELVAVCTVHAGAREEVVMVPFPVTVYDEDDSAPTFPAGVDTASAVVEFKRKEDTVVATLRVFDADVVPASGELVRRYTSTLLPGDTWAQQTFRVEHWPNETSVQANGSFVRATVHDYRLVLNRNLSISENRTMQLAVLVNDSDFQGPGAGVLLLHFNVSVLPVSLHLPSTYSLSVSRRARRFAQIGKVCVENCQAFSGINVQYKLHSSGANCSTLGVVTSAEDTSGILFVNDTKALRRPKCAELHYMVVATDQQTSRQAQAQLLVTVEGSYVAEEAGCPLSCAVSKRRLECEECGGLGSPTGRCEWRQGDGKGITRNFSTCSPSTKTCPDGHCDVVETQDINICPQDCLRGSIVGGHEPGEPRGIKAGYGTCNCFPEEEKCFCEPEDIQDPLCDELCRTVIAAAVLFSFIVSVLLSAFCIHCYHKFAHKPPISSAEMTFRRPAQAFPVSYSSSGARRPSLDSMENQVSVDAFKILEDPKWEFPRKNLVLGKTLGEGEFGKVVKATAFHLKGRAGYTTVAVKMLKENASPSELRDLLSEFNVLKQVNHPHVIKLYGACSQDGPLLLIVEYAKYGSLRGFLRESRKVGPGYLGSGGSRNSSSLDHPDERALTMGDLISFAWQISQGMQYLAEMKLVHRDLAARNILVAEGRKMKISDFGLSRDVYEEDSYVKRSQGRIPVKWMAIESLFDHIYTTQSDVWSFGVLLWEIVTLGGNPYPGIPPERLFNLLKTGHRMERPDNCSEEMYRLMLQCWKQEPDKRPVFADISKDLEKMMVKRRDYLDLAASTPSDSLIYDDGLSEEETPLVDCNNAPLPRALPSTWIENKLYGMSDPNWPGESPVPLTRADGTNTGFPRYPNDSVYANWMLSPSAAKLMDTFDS
T7 sequence (Q16288 whole entry): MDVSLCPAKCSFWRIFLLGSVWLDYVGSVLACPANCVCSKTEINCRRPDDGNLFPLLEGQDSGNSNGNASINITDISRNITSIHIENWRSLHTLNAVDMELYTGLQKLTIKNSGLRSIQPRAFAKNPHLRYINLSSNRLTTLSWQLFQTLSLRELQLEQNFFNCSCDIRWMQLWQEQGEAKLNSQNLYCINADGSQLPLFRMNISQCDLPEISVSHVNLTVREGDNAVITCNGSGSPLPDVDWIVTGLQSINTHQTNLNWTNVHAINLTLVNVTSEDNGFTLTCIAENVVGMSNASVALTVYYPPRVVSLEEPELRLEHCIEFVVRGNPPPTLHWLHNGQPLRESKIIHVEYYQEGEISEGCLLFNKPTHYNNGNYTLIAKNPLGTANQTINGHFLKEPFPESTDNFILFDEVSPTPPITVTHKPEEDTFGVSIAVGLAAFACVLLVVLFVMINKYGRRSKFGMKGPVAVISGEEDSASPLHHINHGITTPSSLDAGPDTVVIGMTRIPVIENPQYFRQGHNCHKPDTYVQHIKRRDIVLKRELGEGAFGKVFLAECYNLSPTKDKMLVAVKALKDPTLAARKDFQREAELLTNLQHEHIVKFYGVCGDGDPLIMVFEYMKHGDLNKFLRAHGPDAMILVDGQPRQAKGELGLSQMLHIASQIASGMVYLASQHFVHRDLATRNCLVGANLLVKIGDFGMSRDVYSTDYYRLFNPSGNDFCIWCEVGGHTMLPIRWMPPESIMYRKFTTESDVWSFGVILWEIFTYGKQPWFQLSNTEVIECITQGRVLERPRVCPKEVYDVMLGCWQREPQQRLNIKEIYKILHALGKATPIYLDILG

remaining binding at 100 µM [1]: 93% | remaining binding at 100 µM [2]: 67% | remaining binding at 100 µM [3]: 83% | remaining binding at 100 µM [4]: 87% | remaining binding at 100 µM [5]: 75% | remaining binding at 100 µM [6]: 73% | remaining binding at 100 µM [7]: 75% | remaining binding at 100 µM [8]: 80% | remaining binding at 100 µM [9]: 82% | remaining binding at 100 µM [10]: 91% | remaining binding at 100 µM [11]: 89% | remaining binding at 100 µM [12]: 85% | remaining binding at 100 µM [13]: 83% | remaining binding at 100 µM [14]: 100% | remaining binding at 100 µM [15]: 70% | remaining binding at 100 µM [16]: 82% | remaining binding at 100 µM [17]: 100% | remaining binding at 100 µM [18]: 75% | remaining binding at 100 µM [19]: 73% | remaining binding at 100 µM [20]: 77% | remaining binding at 100 µM [21]: 82% | remaining binding at 100 µM [22]: 81%
Compound: C=C(C)[C@H]1CC=C(C)C(=O)C1 [S-carvone]
